Data as given in article PMC12518639, “Apomorphine is a novel necroptosis inhibitor targeting mixed lineage kinase domain-like protein oligomerization” (Cell Death Discovery, 2025).

Legend:
Wt-mMLKL = molecular target: T1, Wt-mMLKL (Mus musculus, UniProt Q9D2Y4); test: SPR binding to Wt-mMLKL; settings: CM5 chip, 25 °C
T1 construct: purchased MyBioSource MBS1379843
Excerpt: (§1) The hMLKL plasmid (RC213152, OriGene, Rockville, MD, USA), and recombinant Wt-hMLKL (ab241453, Abcam) and Wt-mMLKL (MBS1379843, MyBioSource, San Diego, CA, USA) proteins were purchased. Nt-hMLKL (2–154), Nt-mMLKL (1–180), and Ct-hMLKL (183–471) were generated using the pBT7-N-His vector. Nt-hMLKL^C86A, Nt-hMLKL^F148A, -hMLKL^C86A/L89A/D94A, and Nt-hMLKL^R145A/R146A/F148A/M150A were generated using the Site-directed Mutagenesis Kit (EZ004S, Enzynomics, S. Korea). These constructs were subcloned into pBT7-N-His and pET-15b plasmid vectors. E. coli BL21 cells transformed with the cloned expression vectors were cultured in LB medium and supplemented with 100 μg/mL ampicillin until an OD at 600 nm of 0.5–0.6 was reached. The cultures were induced by 1 mM IPTG (367-93-1, Sigma-Aldrich). The cells were lysed and centrifuged. The clear supernatants were subjected to Ni-NTA affinity chromatography (175018169, QIAGEN, Hilden, Germany). Plasmids encoding mMLKL (1–464)–gyrase fusion constructs were kindly provided by Prof. […]
(§2) The interactions of Wt-hMLKL, Wt-mMLKL, Nt-mMLKL, Nt, and Ct-hMLKL proteins with Re-APO or Ox-APO were detected through SPR analysis using Biacore™ T200 (Cytiva, Marlborough, MA, USA). […] Sensorgrams were recorded and analyzed in real-time using the control software in the BIAcore T200 system. All data were analyzed using the BIA evaluation software (Cytiva).

Ct-hMLKL (183–471) = molecular target: T2, Ct-hMLKL (183–471) (Homo sapiens, UniProt Q8NB16); test: SPR binding to Ct-hMLKL; settings: CM5 chip
T2 construct: Nt-hMLKL (2–154), Nt-mMLKL (1–180), and Ct-hMLKL (183–471) were generated using the pBT7-N-His vector; His (N); made in house; host or cells: E. coli BL21
Excerpt: as §1, §2

MLKL = test: Confocal microscopy of MLKL membrane translocation; assay type: cell-based, human; settings: THP-1, TBZ, 8 h
Procedure: THP-1 cells were washed and fixed in 4% paraformaldehyde and incubated in 0.25% Triton X-100 for 10 min, blocked for 30 min with 5% BSA-PBS, and stained with the MLKL and CD36 (ab252922, Abcam) antibody. The nuclei were stained with DAPI. Confocal microscopy (FV1000, Olympus, Tokyo, Japan) was used for image analysis. The signal intensity was measured using FluoView FV1000 software.

[1] = system: APAP-induced liver injury in BALB/c mice; test: APAP-induced liver injury model; assay type: in vivo, mouse; settings: 15 mg/kg once, APAP i.p., 24 h; for Necrotic area of liver tissue (H&E): n=3
Procedure: For APAP-induced liver injury, male BALB/c mice aged 6–8 weeks (Central Lab Animal Inc., S. Korea) and male MLKL^–/– C57BL/6 mice aged 6–8 weeks (Cyagen, Santa Clara, CA, USA) were administered acetaminophen (APAP; 400–500 mg/kg, 103-90-2, Sigma-Aldrich) by i.p. injection to induce liver injury in the presence or absence of APO after 12 h of fasting. After 24 h, the mice were sacrificed to obtain liver tissues for further analysis.
For liver tissue preparation, each liver was perfused with DPBS and then fixed in 4% paraformaldehyde (PFA; PC2031-050-00, Biosesang, S. Korea) before embedding in paraffin. Sections were stained with H&E, and necrotic areas were quantified using ImageJ by calculating the proportion of pale or unstained regions relative to the total tissue area. Mouse liver sections were subjected to IHC staining to assess distinct forms of cell death: an anti-p-MLKL antibody (MA5-32752, Thermo Fisher Scientific) to evaluate p-MLKL localization (necroptosis), a TUNEL assay kit (4810-30-K, R&D Systems) for apoptosis, and an anti-4-HNE antibody (GTX01087, GeneTex) for ferroptosis.

Wt-hMLKL = molecular target: T3, Wt-hMLKL (Homo sapiens, UniProt Q8NB16); test: SPR binding to Wt-hMLKL; settings: for Kd: SPR, CM5 chip, 25 °C
T3 construct: purchased Abcam ab241453
T3 sequence (Q8NB16 1-471): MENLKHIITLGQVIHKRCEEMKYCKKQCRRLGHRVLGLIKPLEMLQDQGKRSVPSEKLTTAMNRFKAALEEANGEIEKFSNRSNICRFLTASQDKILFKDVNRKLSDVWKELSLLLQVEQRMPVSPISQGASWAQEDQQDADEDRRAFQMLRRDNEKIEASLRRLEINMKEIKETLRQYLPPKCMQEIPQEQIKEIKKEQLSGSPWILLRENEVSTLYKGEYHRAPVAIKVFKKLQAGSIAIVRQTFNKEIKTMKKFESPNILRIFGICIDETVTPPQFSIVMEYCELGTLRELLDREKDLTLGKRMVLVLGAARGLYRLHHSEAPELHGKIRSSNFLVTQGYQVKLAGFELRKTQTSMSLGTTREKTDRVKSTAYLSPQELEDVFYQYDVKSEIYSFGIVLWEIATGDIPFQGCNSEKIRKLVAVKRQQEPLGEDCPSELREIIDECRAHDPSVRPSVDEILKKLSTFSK
Excerpt: The hMLKL plasmid (RC213152, OriGene, Rockville, MD, USA), and recombinant Wt-hMLKL (ab241453, Abcam) and Wt-mMLKL (MBS1379843, MyBioSource, San Diego, CA, USA) proteins were purchased. Nt-hMLKL (2–154), Nt-mMLKL (1–180), and Ct-hMLKL (183–471) were generated using the pBT7-N-His vector. Nt-hMLKL^C86A, Nt-hMLKL^F148A, -hMLKL^C86A/L89A/D94A, and Nt-hMLKL^R145A/R146A/F148A/M150A were generated using the Site-directed Mutagenesis Kit (EZ004S, Enzynomics, S. Korea). These constructs were subcloned into pBT7-N-His and pET-15b plasmid vectors. E. coli BL21 cells transformed with the cloned expression vectors were cultured in LB medium and supplemented with 100 μg/mL ampicillin until an OD at 600 nm of 0.5–0.6 was reached. The cultures were induced by 1 mM IPTG (367-93-1, Sigma-Aldrich). The cells were lysed and centrifuged. The clear supernatants were subjected to Ni-NTA affinity chromatography (175018169, QIAGEN, Hilden, Germany). Plasmids encoding mMLKL (1–464)–gyrase fusion constructs were kindly provided by Prof. James Murphy (Cell Signalling and Cell Death Division, The Walter and Eliza Hall Institute of Medical Research, Parkville, Victoria 3052, Australia).
The interactions of Wt-hMLKL, Wt-mMLKL, Nt-mMLKL, Nt, and Ct-hMLKL proteins with Re-APO or Ox-APO were detected through SPR analysis using Biacore™ T200 (Cytiva, Marlborough, MA, USA). Each MLKL protein was immobilized on a CM5 sensor chip. To derive the Rligand values, coupling processes were performed based on the molecular weights of the MLKL protein (MW ligand) and Re-APO or Ox-APO (MW analyte). Re-APO or Ox-APO was injected into an HBS buffer (10 mM HEPES, 150 mM NaCl, 3.4 mM EDTA, and 0.005% Tween 20, pH 7.4) at 25 °C (10 μL/min flow rate). Sensorgrams were recorded and analyzed in real-time using the control software in the BIAcore T200 system. All data were analyzed using the BIA evaluation software (Cytiva).

T1 sequence (Q9D2Y4 whole entry): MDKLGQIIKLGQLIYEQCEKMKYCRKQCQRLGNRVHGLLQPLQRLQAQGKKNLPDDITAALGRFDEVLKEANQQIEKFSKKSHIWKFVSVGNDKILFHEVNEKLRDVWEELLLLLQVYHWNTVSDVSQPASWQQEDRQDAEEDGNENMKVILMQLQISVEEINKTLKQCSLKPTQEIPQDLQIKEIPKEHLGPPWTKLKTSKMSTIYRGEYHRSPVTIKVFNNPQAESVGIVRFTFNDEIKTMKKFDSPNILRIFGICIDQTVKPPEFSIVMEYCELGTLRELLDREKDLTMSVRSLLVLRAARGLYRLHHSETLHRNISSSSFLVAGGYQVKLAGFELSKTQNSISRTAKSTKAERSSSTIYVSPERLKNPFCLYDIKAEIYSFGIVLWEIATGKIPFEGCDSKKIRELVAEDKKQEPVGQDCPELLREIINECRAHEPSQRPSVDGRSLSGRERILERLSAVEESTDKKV

CN1CCc2cccc3c4c(cc1c23)C=CC(=O)C4=O [Ox-APO]
Kd (Wt-mMLKL): 0.381 nM | binding in SPR (Ct-hMLKL (183–471)): no detectable binding | inhibition of migration of p-MLKL to the cell membrane (MLKL; same concentration): more effective than Re-APO | Serum ALT and AST levels [1]: significantly improved | membrane p-MLKL in liver (IHC) [1]: dramatic decrease | Necrotic area of liver tissue (H&E) [1]: 1% | Kd (Wt-hMLKL): 5 nM | fold stronger binding than Re-APO (Wt-hMLKL; from KD values): ~ 50 fold

CN1CCc2cccc3c2C1Cc1ccc(O)c(O)c1-3 (stereo not drawn) [Re-APO]
Kd (Wt-mMLKL): 22.9 nM | binding in SPR (Ct-hMLKL (183–471)): no detectable binding | Serum ALT and AST levels [1]: significantly improved | membrane p-MLKL in liver (IHC) [1]: dramatic decrease | Necrotic area of liver tissue (H&E) [1]: 3% | Kd (Wt-hMLKL): 244 nM

CN1CCc2cccc3c2[C@@H]1Cc1ccc(O)c(O)c1-3 [S62, (6aS)-6-methyl-5,6,6a,7-tetrahydro-4H-dibenzo[de,g]quinoline-10,11-diol]
level of MLKL in the cell membrane (MLKL): profoundly decreased
